# Experimental data: US12668599B2, “Heterobifunctional compounds and methods of treating disease” (Halda Therapeutics OpCo, Inc., priority 2023, dated 2026)
# Experiments:
# [1] = system: T-Rex 293 cell line SC3 cells having increased expression of androgen receptor protein due to exposure to doxycycline; assay: Cellular growth inhibition, T-Rex 293 SC3 cells with doxycycline-induced androgen receptor (CellTiter-Glo 2.0, 72 hours); type: cell-based; details: for GI50: T-Rex 293 SC3 cells with 10 ng/ml doxycycline (increased androgen receptor expression), 72 hours, CellTiter-Glo 2.0; for Ratio of GI50's: GI50 of the top compound in the pair divided by GI50 of the lower compound, T-Rex 293 SC3 cells with doxycycline-induced androgen receptor
# [2] = system: T-Rex 293 cell line SC3 cells lacking increased expression of androgen receptor protein; assay: Cellular growth inhibition, T-Rex 293 SC3 cells without doxycycline (CellTiter-Glo 2.0, 72 hours); type: cell-based; details: T-Rex 293 SC3 cells not exposed to doxycycline (no increased androgen receptor expression)
# VCaP cells = assay: Cellular growth inhibition assay for VCaP cells (CellTiter-Glo 2.0, 72 hours); type: cell-based, human; details: for GI50: CellTiter-Glo 2.0; for Ratio of GI50's: GI50 of the top compound in the pair divided by GI50 of the lower compound
Compound,"GI50 (VCaP cells; Homo sapiens, VCaP, 72 h) [nM]",GI50 (VCaP cells; 72 hours) [nM],Ratio of GI50's (VCaP cells),GI50 [1] [nM],GI50 ([2]; 72 h) [nM],GI50 [2] [nM],Ratio of GI50's [1]
"COc1cc(O[C@H]2CC[C@H](NC(=O)c3ccc(N4CCC5(CCN(c6ccc(C7=N[C@@H](C)c8nnc(C)n8-c8sc(C)c(C)c87)cc6Cl)CC5)C4)nn3)CC2)ccc1C#N [Compound I-73, 6-[8-[2-chloro-4-[(9S)-4,5,9,13-tetramethyl-3-thia-1,8,11,12-tetrazatricyclo[8.3.0.0^2,6]trideca-2 (6),4,7,10,12-pentaen-7-yl]phenyl]-2,8-diazaspiro[4.5]decan-2-yl]-N-[4-(4-cyano-3-methoxy-phenoxy)cyclohexyl]pyridazine-3-carboxamide]",< 500,,,< 500,< 500,,
COc1cc(O[C@H]2CC[C@H](NC(=O)c3ccc(N4CCC5(CCN(c6ccc(C7=N[C@@H](C)c8nnc(C)n8-c8sc(C)c(C)c87)c(Cl)c6)CC5)C4)nn3)CC2)ccc1C#N [Compound I-74],< 500,,,< 500,> 3000,,
COc1cc(O[C@H]2CC[C@H](NC(=O)c3ccc(N4CCC5(CCN(c6ccc(C7=N[C@@H](C)c8nnc(C)n8-c8sc(C)c(C)c87)c(OC)c6)CC5)C4)nn3)CC2)ccc1C#N [Compound I-75],< 500,,,< 500,< 500,,
COc1cc(O[C@H]2CC[C@H](NC(=O)c3ccc(N4C[C@@H]5CN(c6ccc(C7=N[C@@H](C)c8nnc(C)n8-c8sc(C)c(C)c87)cc6F)C[C@@H]5C4)nn3)CC2)ccc1C#N [Compound I-76],< 500,,,< 500,< 500,,
COc1cc(O[C@H]2CC[C@H](NC(=O)c3ccc(N4C[C@H]5CN(c6ccc(C7=N[C@@H](C)c8nnc(C)n8-c8sc(C)c(C)c87)c(F)c6)C[C@H]5C4)nn3)CC2)ccc1C#N [Compound I-77],< 500,,,< 500,< 500,,
COc1cc(O[C@H]2CC[C@H](NC(=O)c3ccc(N4CC56CCCCC5(CN(c5ccc(C7=N[C@@H](C)c8nnc(C)n8-c8sc(C)c(C)c87)cc5)C6)C4)nn3)CC2)ccc1C#N (stereo partly shown) [Compound I-78],< 500,,,< 500,< 500,,
"COc1cc(O[C@H]2CC[C@H](NC(=O)c3ccc(N4CCC5(CCN(c6ccc(C7=N[C@@H](C)c8nnc(C)n8-c8sc(C)c(C)c87)cc6F)C5)C4)nn3)CC2)ccc1C#N (stereo partly drawn) [Compound I-79, N-[4-(4-cyano-3-methoxy-phenoxy)cyclohexyl]-6-[7-[2-fluoro-4-[(9S)-4,5,9,13-tetramethyl-3-thia-1,8,11,12-tetrazatricyclo[8.3.0.0^2,6]trideca-2 (6),4,7,10,12-pentaen-7-yl]phenyl]-2,7-diazaspiro[4.4]nonan-2-yl]pyridazine-3-carboxamide]",< 500,,,< 500,< 500,,
COc1cc(O[C@H]2CC[C@H](NC(=O)c3ccc(N4CCC5(CCN(c6ccc(C7=N[C@@H](C)c8nnc(C)n8-c8sc(C)c(C)c87)cc6F)C5)C4)nn3)CC2)ccc1C#N (stereo partly shown) [Compound I-80],,< 500,,< 500,,< 500,
"COc1cc(O[C@H]2CC[C@H](NC(=O)c3ccc(N4CCC5(CCCN(c6ccc(C7=N[C@@H](C)c8nnc(C)n8-c8sc(C)c(C)c87)cc6)C5)CC4)nn3)CC2)ccc1C#N [Compound I-81, N-((1r,4r)-4-(4-cyano-3-methoxyphenoxy)cyclohexyl)-6-(2-(4-((S)-2,3,6,9-tetramethyl-6H-thieno[3,2-f][1,2,4]triazolo[4,3-a][1,4]diazepin-4-yl)phenyl)-2,9-diazaspiro[5.5]undecan-9-yl) pyridazine-3-carboxamide]",< 500,,,< 500,< 500,,
"COc1cc(O[C@H]2CC[C@H](NC(=O)c3ccc(N4CCC5(CC4)CC(Oc4ccc(C6=N[C@@H](Cc7ncco7)c7nnc(C)n7-c7sc(C)c(C)c76)cc4)C5)nn3)CC2)ccc1C#N [Compound I-83, N-[4-(4-cyano-3-methoxy-phenoxy)cyclohexyl]-6-[2-[4-[(9S)-4,5,13-trimethyl-9-(oxazol-2-ylmethyl)-3-thia-1,8,11,12-tetrazatricyclo[8.3.0.0^2,6]trideca-2 (6),4,7,10,12-pentaen-7-yl]phenoxy]-7-azaspiro[3.5]nonan-7-yl]pyridazine-3-carboxamide]",< 500,,1,< 500,< 500,,1
COc1cc(O[C@H]2CC[C@H](NC(=O)c3ccc(N4CCC5(CCC(c6ccc(C7=N[C@@H](C)c8nnc(C)n8-c8sc(C)c(C)c87)nc6)CC5)C4)nn3)CC2)ccc1C#N (stereo partly shown) [Compound I-88],< 500,,,< 500,< 500,,
COc1cc(O[C@H]2CC[C@H](NC(=O)c3ccc(N4CCC5(CCC(c6ccc(C7=N[C@@H](C)c8nnc(C)n8-c8sc(C)c(C)c87)nc6)CC5)C4)nn3)CC2)ccc1C#N (stereo partly shown) [Compound I-89],,500 to 1500,,< 500,,< 500,
COc1cc(O[C@H]2CC[C@H](NC(=O)c3ccc(N4CCC5(CCN(c6ccc(C7=N[C@@H](C)c8nnc(C)n8-c8sc(C)c(C)c87)cc6OC)CC5)C4)nn3)CC2)ccc1C#N [Compound I-90],< 500,,,< 500,< 500,,
COc1cc(O[C@H]2CC[C@H](NC(=O)c3ccc(N4C[C@]5(F)CN(c6ccc(C7=N[C@@H](C)c8nnc(C)n8-c8sc(C)c(C)c87)cc6)C[C@]5(F)C4)nn3)CC2)ccc1C#N [Compound I-91],< 500,,,< 500,< 500,,
COc1cc(O[C@H]2CC[C@H](NC(=O)c3ccc(N4CCC5(CCN(c6ccc(C7=N[C@@H](C)c8nnc(C)n8-c8sc(C)c(C)c87)c(F)c6)C5)C4)nn3)CC2)ccc1C#N (stereo partly shown) [Compound I-92],< 500,,,< 500,< 500,,
COc1cc(O[C@H]2CC[C@H](NC(=O)c3ccc(N4CCC5(CCN(c6ccc(C7=N[C@@H](C)c8nnc(C)n8-c8sc(C)c(C)c87)c(F)c6)C5)C4)nn3)CC2)ccc1C#N (stereo partly shown) [Compound I-93],,< 500,,< 500,,< 500,
"COc1cc(O[C@H]2CC[C@H](NC(=O)c3ccc(N4CCC5(CCC(c6ccc(C7=N[C@@H](Cc8ncco8)c8nnc(C)n8-c8sc(C)c(C)c87)cc6)CC5)C4)nn3)CC2)ccc1C#N (stereo partly drawn) [Compound I-100, N-((1r,4r)-4-(4-cyano-3-methoxyphenoxy)cyclohexyl)-6-(8-(4-((S)-2,3,9-trimethyl-6-(oxazol-2-ylmethyl)-6H-thieno[3,2-f][1,2,4]triazolo[4,3-a][1,4]diazepin-4-yl)phenyl)-2-azaspiro[4.5]decan-2-yl) pyridazine-3-carboxamide]",< 500,,,< 500,< 500,,
COc1cc(O[C@H]2CC[C@H](NC(=O)c3ccc(N4CCC5(CCC(c6ccc(C7=N[C@@H](Cc8ncco8)c8nnc(C)n8-c8sc(C)c(C)c87)cc6)CC5)C4)nn3)CC2)ccc1C#N (stereo partly shown) [Compound I-101],,< 500,1,< 500,,< 500,1

# Continued, in another order:
"GI50 (VCaP cells; Homo sapiens, VCaP, 72 h) [nM]",GI50 (VCaP cells; 72 hours) [nM],Ratio of GI50's (VCaP cells),Compound,GI50 [1] [nM],GI50 ([2]; 72 h) [nM],GI50 [2] [nM],Ratio of GI50's [1]
< 500,,,COc1cc(O[C@H]2CC[C@H](NC(=O)c3ccc(N4CCC5(CCC(c6ccc(C7=N[C@@H](C)c8nnc(C)n8-c8sc(C)c(C)c87)cc6Cl)CC5)C4)nn3)CC2)ccc1C#N (stereo partly shown) [Compound I-84],< 500,,< 500,
,< 500,,COc1cc(O[C@H]2CC[C@H](NC(=O)c3ccc(N4CCC5(CCC(c6ccc(C7=N[C@@H](C)c8nnc(C)n8-c8sc(C)c(C)c87)cc6Cl)CC5)C4)nn3)CC2)ccc1C#N (stereo partly shown) [Compound I-85],< 500,,> 3000,
< 500,,,"COc1cc(O[C@H]2CC[C@H](NC(=O)c3ccc(N4CCC5(CCC(c6ccc(C7=N[C@@H](C)c8nnc(C)n8-c8sc(C)c(C)c87)cn6)CC5)C4)nn3)CC2)ccc1C#N (stereo partly drawn) [Compound I-86, N-[4-(4-cyano-3-methoxy-phenoxy)cyclohexyl]-6-[8-[5-[(9S)-4,5,9,13-tetramethyl-3-thia-1,8,11,12-tetrazatricyclo[8.3.0.0^2,6]trideca-2 (6),4,7,10,12-pentaen-7-yl]-2-pyridyl]-2-azaspiro[4.5]decan-2-yl]pyridazine-3-carboxamide]",< 500,,> 3000,
,< 500,,COc1cc(O[C@H]2CC[C@H](NC(=O)c3ccc(N4CCC5(CCC(c6ccc(C7=N[C@@H](C)c8nnc(C)n8-c8sc(C)c(C)c87)cn6)CC5)C4)nn3)CC2)ccc1C#N (stereo partly shown) [Compound I-87],< 500,,< 500,
< 500,,,COc1cc(O[C@H]2CC[C@H](NC(=O)c3ccc(N4CCC5(CCC(c6ccc(C7=N[C@@H](C)c8nnc(C)n8-c8sc(C)c(C)c87)cc6)C5)C4)nn3)CC2)ccc1C#N (stereo partly shown) [Compound I-94],< 500,< 500,,
,< 500,,COc1cc(O[C@H]2CC[C@H](NC(=O)c3ccc(N4CCC5(CCC(c6ccc(C7=N[C@@H](C)c8nnc(C)n8-c8sc(C)c(C)c87)cc6)C5)C4)nn3)CC2)ccc1C#N (stereo partly shown) [Compound I-95],< 500,,< 500,
,< 500,,COc1cc(O[C@H]2CC[C@H](NC(=O)c3ccc(N4CCC5(CCC(c6ccc(C7=N[C@@H](C)c8nnc(C)n8-c8sc(C)c(C)c87)cc6)C5)C4)nn3)CC2)ccc1C#N (stereo partly shown) [Compound I-96],< 500,,< 500,
,< 500,,COc1cc(O[C@H]2CC[C@H](NC(=O)c3ccc(N4CCC5(CCC(c6ccc(C7=N[C@@H](C)c8nnc(C)n8-c8sc(C)c(C)c87)cc6)C5)C4)nn3)CC2)ccc1C#N (stereo partly shown) [Compound I-97],< 500,,< 500,
,< 500,,COc1cc(O[C@H]2CC[C@H](NC(=O)c3ccc(N4CCC5(CCCN(c6ccc(C7=N[C@@H](C)c8nnc(C)n8-c8sc(C)c(C)c87)cc6)C5)C4)nn3)CC2)ccc1C#N (stereo partly shown) [Compound I-99],< 500,,< 500,
